Reference: ChEMBL document CHEMBL1201862, “PubChem BioAssay data set” (2004)
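Results reflect a 48-hour exposure of cells in 96-well plates to compound at five concentrations. GI50 = concentration required for 50% inhibition of growth.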 The source made the active and inactive calls. Cut-off read from the data, not from the text of the source: active = GI50 up to about 1.1 µM and inactive = higher.

Legend:
Assay in all cases: NCI anticancer screen, dose series, 48 h
CCRF-CEM = test system: CCRF-CEM
SW-620 = test system: SW-620
COLO 205 = test system: COLO 205
NCI/ADR-RES = test system: NCI/ADR-RES
HT-29 = test system: HT-29
UO-31 = test system: UO-31
SK-MEL-2 = test system: SK-MEL-2
A498 = test system: A498
SK-MEL-28 = test system: SK-MEL-28
SNB-75 = test system: SNB-75
NCI-H226 = test system: NCI-H226
SF-268 = test system: SF-268
MDA-N = test system: MDA-N
MDA-MB-435 = test system: MDA-MB-435
MOLT-4 = test system: MOLT-4
M14 = test system: M14
Malme-3M = test system: Malme-3M
A549 = test system: A549
OVCAR-8 = test system: OVCAR-8
DMS-114 = test system: DMS-114

| Structure (SMILES) | GI50 (CCRF-CEM) | GI50 (SW-620) | GI50 (COLO 205) | GI50 (NCI/ADR-RES) | GI50 (HT-29) | GI50 (UO-31) | GI50 (SK-MEL-2) | GI50 (A498) | GI50 (SK-MEL-28) | GI50 (SNB-75) | GI50 (NCI-H226) | GI50 (SF-268) | GI50 (MDA-N) | GI50 (MDA-MB-435) | GI50 (MOLT-4) | GI50 (M14) | GI50 (Malme-3M) | GI50 (A549) | GI50 (OVCAR-8) | GI50 (DMS-114) |
| --- | --- | --- | --- | --- | --- | --- | --- | --- | --- | --- | --- | --- | --- | --- | --- | --- | --- | --- | --- | --- |
| CS(=O)(=O)Nc1ccc(Nc2c3ccccc3nc3ccccc23)cc1 | 0.459 µM (active) | 1.11 µM (active) | 1.69 µM (inactive) | 7.28 µM (inactive) | 4.4 µM (inactive) | 2.23 µM (inactive) | 5.16 µM (inactive) | 3.21 µM (inactive) | 4.75 µM (inactive) | 3.46 µM (inactive) | 1.04 µM (active) | 2.78 µM (inactive) | 5.94 µM (inactive) | 7.87 µM (inactive) | 0.0873 µM (active) | 3.37 µM (inactive) | 2.15 µM (inactive) | 0.325 µM (active) | 2.77 µM (inactive) | 1.46 µM (inactive) |
| C=CCOc1cc2c(cc1C(C)c1ccc(OC)cc1)OCO2 (stereo not drawn) | 0.443 µM (active) | 0.375 µM (active) | 0.471 µM (active) | – | 0.286 µM (active) | 0.583 µM (active) | 16.6 µM (inactive) | 2.08 µM (inactive) | > 100 µM (inactive) | 0.176 µM (active) | 0.813 µM (active) | 4.88 µM (inactive) | 0.337 µM (active) | 0.251 µM (active) | 0.483 µM (active) | 0.67 µM (active) | 0.647 µM (active) | 0.869 µM (active) | 0.624 µM (active) | 0.289 µM (active) |
| CC(C)CCC[C@@H](C)C1CCC2[C@@H]3CC=C4C[C@@H](C(=O)NCCN(C)C)CC[C@]4(C)C3CC[C@@]21C (stereo partly drawn) | 23.8 µM (inactive) | 30 µM (inactive) | 19.5 µM (inactive) | – | 34.2 µM (inactive) | 23.1 µM (inactive) | 11.5 µM (inactive) | 32.5 µM (inactive) | 35.2 µM (inactive) | 20.4 µM (inactive) | 19.9 µM (inactive) | 36 µM (inactive) | – | – | 31.1 µM (inactive) | 16.3 µM (inactive) | 28.9 µM (inactive) | 23.1 µM (inactive) | 33.1 µM (inactive) | 14.8 µM (inactive) |
| Clc1cc(Cc2cc(Cl)c(Cl)c3c2OCOC3)c2c(c1Cl)COCO2 | 30.1 µM (inactive) | > 100 µM (inactive) | 70 µM (inactive) | – | > 100 µM (inactive) | 34.6 µM (inactive) | 55.5 µM (inactive) | 28.4 µM (inactive) | > 100 µM (inactive) | 27.5 µM (inactive) | 28.1 µM (inactive) | > 100 µM (inactive) | – | – | 56.2 µM (inactive) | 38.4 µM (inactive) | 40.6 µM (inactive) | 40.9 µM (inactive) | 36.8 µM (inactive) | 45.5 µM (inactive) |
